In ChEMBL document CHEMBL1921711, “Transformation of quercitols into 4-methylenecyclohex-5-ene-1,2,3-triol derivatives, precursors for the chemical chaperones N-octyl-4-epi-β-valienamine (NOEV) and N-octyl-β-valienamine (NOV)” (Bioorg Med Chem Lett, 2011):
Calls of active or inactive are those of the source. The calls are words filed in the database; no cut-off is given here.

What was measured:
Alpha-galactosidase = Alpha-galactosidase (Coffea arabica, UniProt Q42656); assay: Inhibition of green coffee beans alpha-galactosidase by spectrometry
Alpha-galactosidase, sequence (Q42656 whole entry): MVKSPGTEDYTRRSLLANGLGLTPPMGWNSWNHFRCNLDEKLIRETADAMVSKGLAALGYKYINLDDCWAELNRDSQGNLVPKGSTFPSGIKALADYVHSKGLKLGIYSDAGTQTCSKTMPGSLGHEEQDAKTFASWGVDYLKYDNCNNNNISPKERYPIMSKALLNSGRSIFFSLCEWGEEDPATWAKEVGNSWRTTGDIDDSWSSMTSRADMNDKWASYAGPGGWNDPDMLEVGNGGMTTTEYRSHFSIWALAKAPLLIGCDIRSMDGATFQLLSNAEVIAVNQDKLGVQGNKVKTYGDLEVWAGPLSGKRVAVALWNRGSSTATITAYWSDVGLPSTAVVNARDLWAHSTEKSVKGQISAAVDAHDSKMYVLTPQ

Beta-galactosidase [1] = biological target: T1, Beta-galactosidase (Bos taurus, UniProt Q58D55); assay: Inhibition of bovine liver beta-galactosidase by spectrometry
T1 sequence (Q58D55 whole entry): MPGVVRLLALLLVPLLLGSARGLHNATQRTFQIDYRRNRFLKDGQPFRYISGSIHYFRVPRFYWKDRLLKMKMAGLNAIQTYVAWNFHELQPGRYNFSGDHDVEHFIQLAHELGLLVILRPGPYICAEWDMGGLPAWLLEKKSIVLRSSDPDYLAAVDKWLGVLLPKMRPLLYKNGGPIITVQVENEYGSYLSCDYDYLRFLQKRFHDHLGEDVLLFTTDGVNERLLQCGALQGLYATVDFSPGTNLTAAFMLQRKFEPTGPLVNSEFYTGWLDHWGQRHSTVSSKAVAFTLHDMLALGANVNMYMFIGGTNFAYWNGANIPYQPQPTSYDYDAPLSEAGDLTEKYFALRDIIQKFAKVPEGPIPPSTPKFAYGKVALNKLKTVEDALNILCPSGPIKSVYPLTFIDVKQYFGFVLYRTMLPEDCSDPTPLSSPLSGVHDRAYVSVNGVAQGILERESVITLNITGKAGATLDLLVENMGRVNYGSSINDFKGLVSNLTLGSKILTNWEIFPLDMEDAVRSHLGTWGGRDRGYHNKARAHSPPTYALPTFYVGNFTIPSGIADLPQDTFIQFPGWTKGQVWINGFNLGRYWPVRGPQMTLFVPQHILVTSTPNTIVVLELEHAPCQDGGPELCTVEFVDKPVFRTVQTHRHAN

[2] = (§1) Inhibition of almonds beta-glucosidase by spectrometry; parameters: species or system Prunus dulcis
Helix pomatia = assay: Inhibition of helix pomatia beta-mannosidase by spectrometry
Canavalia ensiformis = assay: Inhibition of jack beans alpha-mannosidase by spectrometry
Homo sapiens = species: Homo sapiens; assay: Inhibition of human placental alpha-fucosidase by spectrometry
Beta-galactosidase [3] = biological target: T2, Beta-galactosidase (Aspergillus oryzae, UniProt Q2U7N3); assay: Inhibition of Aspergillus oryzae beta-galactosidase by spectrometry
T2 sequence (Q2U7N3 whole entry): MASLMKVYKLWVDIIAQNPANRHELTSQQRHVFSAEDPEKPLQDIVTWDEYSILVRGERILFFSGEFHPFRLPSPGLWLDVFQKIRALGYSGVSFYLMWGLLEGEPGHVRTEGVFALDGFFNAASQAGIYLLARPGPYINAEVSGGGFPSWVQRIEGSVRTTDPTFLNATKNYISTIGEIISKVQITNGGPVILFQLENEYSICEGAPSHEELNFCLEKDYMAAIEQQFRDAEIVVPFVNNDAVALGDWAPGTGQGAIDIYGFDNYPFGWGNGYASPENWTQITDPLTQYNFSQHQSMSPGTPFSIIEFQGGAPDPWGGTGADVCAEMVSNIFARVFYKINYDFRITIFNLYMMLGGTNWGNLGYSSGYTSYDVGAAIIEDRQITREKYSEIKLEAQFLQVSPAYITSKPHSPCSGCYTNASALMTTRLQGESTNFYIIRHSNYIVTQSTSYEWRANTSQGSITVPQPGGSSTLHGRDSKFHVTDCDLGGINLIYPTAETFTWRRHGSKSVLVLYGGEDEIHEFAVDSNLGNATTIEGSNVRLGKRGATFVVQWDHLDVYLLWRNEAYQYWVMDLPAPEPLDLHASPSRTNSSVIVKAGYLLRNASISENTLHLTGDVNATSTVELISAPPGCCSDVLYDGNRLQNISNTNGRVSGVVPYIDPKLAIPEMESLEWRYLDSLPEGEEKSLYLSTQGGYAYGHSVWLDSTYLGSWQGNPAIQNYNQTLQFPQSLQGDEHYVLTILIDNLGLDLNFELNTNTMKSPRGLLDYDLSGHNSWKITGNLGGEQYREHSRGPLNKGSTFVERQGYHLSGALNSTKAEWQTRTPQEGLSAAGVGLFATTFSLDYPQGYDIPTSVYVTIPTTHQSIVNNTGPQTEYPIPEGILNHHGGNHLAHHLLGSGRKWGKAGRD

Prunus dulcis = assay: as §1

Row | SMILES | IC50 (Alpha-galactosidase) | IC50 (Beta-galactosidase [1]) | IC50 [2] | inhibition (Helix pomatia) | inhibition (Canavalia ensiformis) | inhibition (Homo sapiens) | IC50 (Beta-galactosidase [3]) | inhibition (Prunus dulcis)
1 | CCCCCCCCN[C@@H]1C=C(CO)[C@@H](O)[C@H](O)[C@H]1O | > 1000 µM | 2.9 µM | 47 µM | – | – | – | – | –
2 | CCCCCCCCN[C@@H]1C=C(CO)[C@H](O)[C@H](O)[C@H]1O | 4.5 µM | 4.5 µM | 8.1 µM | inactive | inactive | inactive | 85 µM | Active
